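1) Cells in 96-well plates. 2) Compound, 48 h, 5 concentrations. 3) Linear interpolation between surrounding doses. 4) Unreached endpoint = highest concentration. Abbreviation: GI50, concentration required for 50% inhibition of growth.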 Calls of active or inactive are those of the source. Cut-off read from the data, not from the text of the source: active = GI50 up to about 1.1 µM and inactive = higher.
Legend:
Test in all cases: inhibition of tumour cell growth, NCI panel, 48 h
786-0 = test system: 786-0
CCRF-CEM = test system: CCRF-CEM
COLO 205 = test system: COLO 205
DMS-114 = test system: DMS-114
HL-60 = test system: HL-60
HOP-92 = test system: HOP-92
KM12 = test system: KM12
MOLT-4 = test system: MOLT-4
Malme-3M = test system: Malme-3M
NCI-H522 = test system: NCI-H522
OVCAR-3 = test system: OVCAR-3
RPMI-8226 = test system: RPMI-8226
RXF 393 = test system: RXF 393
SF-268 = test system: SF-268
SNB-75 = test system: SNB-75
SW-620 = test system: SW-620
UACC-62 = test system: UACC-62
ACHN = test system: ACHN
U-251 = test system: U-251

Measured: GI50

Nc1ncnc2c1ncn2CC(O)CO (configuration not stated)
inactive: 786-0 > 100 µM | CCRF-CEM > 100 µM | COLO 205 > 100 µM | DMS-114 > 100 µM | HL-60 > 100 µM | HOP-92 > 100 µM | KM12 > 100 µM | MOLT-4 > 100 µM | Malme-3M > 100 µM | NCI-H522 > 100 µM | OVCAR-3 > 100 µM | RPMI-8226 > 100 µM | RXF 393 > 100 µM | SF-268 > 100 µM | SNB-75 > 100 µM | SW-620 > 100 µM | UACC-62 > 100 µM

c1cc2c(cnc3cscc32)s1
inactive: 786-0 > 100 µM | ACHN > 100 µM | CCRF-CEM > 100 µM | DMS-114 > 100 µM | HL-60 > 100 µM | HOP-92 > 100 µM | KM12 > 100 µM | MOLT-4 > 100 µM | Malme-3M > 100 µM | NCI-H522 > 100 µM | OVCAR-3 > 100 µM | RPMI-8226 > 100 µM | RXF 393 > 100 µM | SF-268 > 100 µM | SNB-75 57.7 µM | SW-620 > 100 µM | U-251 > 100 µM

Cc1ccc(NS(=O)(=O)c2cc(C(C)(C)C)ccc2OCCOCCOCCOc2ccc(C(C)(C)C)cc2S(=O)(=O)Nc2ccc(C)cc2)cc1
inactive: 786-0 > 100 µM | ACHN > 100 µM | CCRF-CEM > 100 µM | COLO 205 > 100 µM | DMS-114 > 100 µM | HL-60 > 100 µM | HOP-92 > 100 µM | KM12 > 100 µM | MOLT-4 > 100 µM | Malme-3M > 100 µM | OVCAR-3 > 100 µM | RXF 393 > 100 µM | SF-268 > 100 µM | SNB-75 > 100 µM | SW-620 > 100 µM | U-251 > 100 µM | UACC-62 > 100 µM

COC12CC(O)=C(C(C)=O)C(=O)C1(C)c1c(OC(C)=O)c(C)c(O)c(C(C)=O)c1O2 (configuration not stated)
inactive: 786-0 18.9 µM | ACHN 12.3 µM | CCRF-CEM 8.41 µM | DMS-114 21.3 µM | HL-60 15.8 µM | HOP-92 18.4 µM | KM12 12 µM | MOLT-4 18.6 µM | Malme-3M 17.9 µM | OVCAR-3 14.1 µM | RPMI-8226 7.71 µM | RXF 393 14.7 µM | SF-268 23.6 µM | SNB-75 16 µM | SW-620 22.7 µM | U-251 9.25 µM | UACC-62 4.98 µM

CC(C)(C)C1CCC2(CC1)c1[nH]c3ccccc3c1C1(CCC(C(C)(C)C)CC1)c1[nH]c3ccccc3c12 (configuration not stated)
inactive: 786-0 7.08 µM | ACHN > 100 µM | CCRF-CEM > 100 µM | COLO 205 88.9 µM | DMS-114 25.9 µM | HL-60 > 100 µM | HOP-92 > 100 µM | KM12 > 100 µM | MOLT-4 > 100 µM | Malme-3M > 100 µM | NCI-H522 > 100 µM | RPMI-8226 > 100 µM | RXF 393 > 100 µM | SF-268 > 100 µM | SNB-75 70.1 µM | SW-620 39.4 µM | U-251 87.3 µM | UACC-62 > 100 µM

CC1(C)CCc2cc3c(cc2O1)OC(C)(C)C1c2c(ccc4c2CCC(C)(C)O4)OC31 (configuration not stated)
inactive: 786-0 > 100 µM | ACHN > 100 µM | CCRF-CEM > 100 µM | COLO 205 > 100 µM | DMS-114 98.4 µM | HL-60 51.1 µM | HOP-92 > 100 µM | KM12 > 100 µM | MOLT-4 > 100 µM | NCI-H522 > 100 µM | OVCAR-3 78.3 µM | RPMI-8226 > 100 µM | SF-268 > 100 µM | SW-620 > 100 µM | U-251 > 100 µM | UACC-62 > 100 µM

COC(=O)C1=C(c2ccc(OC)c(OC)c2)OC(c2cc(OC)c(OC)c(OC)c2)C1 (configuration not stated)
inactive: 786-0 20 µM | ACHN 36.4 µM | CCRF-CEM > 100 µM | DMS-114 37.6 µM | HOP-92 23.2 µM | KM12 33.1 µM | Malme-3M 42.4 µM | OVCAR-3 38.1 µM | RPMI-8226 > 100 µM | RXF 393 22.1 µM | SF-268 27.9 µM | SNB-75 7.31 µM | SW-620 41.6 µM | U-251 13.5 µM

O=C(O)CP(=S)(S)c1ccccc1 (configuration not stated)
inactive: 786-0 > 100 µM | ACHN > 100 µM | CCRF-CEM > 100 µM | COLO 205 > 100 µM | DMS-114 > 100 µM | HL-60 > 100 µM | HOP-92 > 100 µM | KM12 > 100 µM | MOLT-4 > 100 µM | Malme-3M > 100 µM | NCI-H522 > 100 µM | RXF 393 > 100 µM | SF-268 > 100 µM | SW-620 > 100 µM | U-251 > 100 µM | UACC-62 > 100 µM

CCC1=NC(CO)[C@H](c2ccccc2)O1 (some centres not stated)
inactive: 786-0 > 100 µM | ACHN > 100 µM | COLO 205 > 100 µM | DMS-114 > 100 µM | HOP-92 > 100 µM | KM12 > 100 µM | Malme-3M > 100 µM | OVCAR-3 > 100 µM | RPMI-8226 > 100 µM | RXF 393 > 100 µM | SF-268 > 100 µM | SNB-75 > 100 µM | SW-620 > 100 µM | U-251 > 100 µM | UACC-62 > 100 µM

From ChEMBL document CHEMBL1201862, “PubChem BioAssay data set” (2004)
